In patent US4401660A, “Ester derivatives of 5-O-mycaminosyl tylonolide and method of using same” (Eli Lilly and Company, priority 1981, dated 1983):

Experiments:
[1] = system: Staphylococcus aureus S13E; assay: MIC, standard agar-dilution assay (Table II); type: cell-based; parameters: unit not given here
Method: (§1) The MIC's in Table II were determined by standard agar-dilution assays. The MIC's in Table III were obtained using a conventional broth-dilution microtiter test.

[2] = system: Staphylococcus aureus V41; assay: MIC, standard agar-dilution assay (Table II); type: cell-based; parameters: unit not given here; conditions: Staphylococcus aureus V41, penicillin-resistant strain
Method: as §1

[3] = system: Staphylococcus aureus X1.1; assay: MIC, standard agar-dilution assay (Table II); type: cell-based; parameters: unit not given here
Method: as §1

[4] = system: Staphylococcus aureus X400; assay: MIC, standard agar-dilution assay (Table II); type: cell-based; parameters: unit not given here; conditions: Staphylococcus aureus X400, methicillin-resistant strain
Method: as §1

[5] = system: Staphylococcus epidermidis EPI1; assay: MIC, standard agar-dilution assay (Table II); type: cell-based; parameters: unit not given here
Method: as §1

[6] = system: Staphylococcus epidermidis EPI2; assay: MIC, standard agar-dilution assay (Table II); type: cell-based; parameters: unit not given here
Method: as §1

[7] = system: Streptococcus Group D 9960; assay: MIC, standard agar-dilution assay (Table II); type: cell-based; parameters: unit not given here
Method: as §1

[8] = system: Streptococcus Group D X66; assay: MIC, standard agar-dilution assay (Table II); type: cell-based; parameters: unit not given here
Method: as §1

[9] = system: Streptococcus pneumoniae Park I; assay: MIC, standard agar-dilution assay (Table II); type: cell-based; parameters: unit not given here
Method: as §1

[10] = system: Streptococcus pyogenes C203; assay: MIC, standard agar-dilution assay (Table II); type: cell-based; parameters: unit not given here
Method: as §1

Mycoplasma gallisepticum = assay: MIC, broth-dilution microtiter test (Table III); type: cell-based; parameters: unit not given here
Method: as §1

Mycoplasma hyorhinis = assay: MIC, broth-dilution microtiter test (Table III); type: cell-based; parameters: unit not given here
Method: as §1

Mycoplasma synoviae = assay: MIC, broth-dilution microtiter test (Table III); type: cell-based; parameters: unit not given here
Method: as §1

[11] = system: Pasteurella haemolytica 22C; assay: MIC, broth-dilution microtiter test (Table III); type: cell-based; parameters: unit not given here
Method: as §1

[12] = system: Pasteurella haemolytica 23C; assay: MIC, broth-dilution microtiter test (Table III); type: cell-based; parameters: unit not given here
Method: as §1

[13] = system: Pasteurella haemolytica 41D; assay: MIC, broth-dilution microtiter test (Table III); type: cell-based; parameters: unit not given here
Method: as §1

[14] = system: Pasteurella multocida 17E; assay: MIC, broth-dilution microtiter test (Table III); type: cell-based; parameters: unit not given here; conditions: bovine isolate
Method: as §1

[15] = system: Pasteurella multocida 22A; assay: MIC, broth-dilution microtiter test (Table III); type: cell-based; parameters: unit not given here
Method: as §1

[16] = system: Pasteurella multocida 40G; assay: MIC, broth-dilution microtiter test (Table III); type: cell-based; parameters: unit not given here
Method: as §1

[17] = system: Pasteurella multocida 60A; assay: MIC, broth-dilution microtiter test (Table III); type: cell-based; parameters: unit not given here; conditions: avian isolate
Method: as §1

[18] = system: Pasteurella multocida 68C; assay: MIC, broth-dilution microtiter test (Table III); type: cell-based; parameters: unit not given here
Method: as §1

Staphylococcus aureus = assay: MIC, broth-dilution microtiter test (Table III); type: cell-based; parameters: unit not given here
Method: as §1

Streptococcus sp. 80 = assay: MIC, broth-dilution microtiter test (Table III); type: cell-based; parameters: unit not given here
Method: as §1

Pasteurella multocida = assay: Treatment of Pasteurella infections in chicks (Table V); type: in vivo, one-day-old chicks; conditions: Pasteurella multocida, sc, 4 h; 30 mg/kg by subcutaneous injection one and four hours post challenge; read-out: Deaths in Treated Chicks/Number Treated (converted)
Method: Certain OMT ester derivatives are active in vivo against Pasteurella infections. Table V summarizes the results of tests in which the ester derivatives were administered to one-day-old chicks at a dosage level of 30 mg/kg by subcutaneous injection one and four hours post challenge of the chicks with Pasteurella multocida (0.1 ml of a 10^-3 dilution of a 20-hour tryptose broth culture of avian P. multocida given subcutaneously). All nonmedicated infected chicks (ten in each control group) died within 24 hours of Pasteurella challenge.

CCC1OC(=O)CC(O)C(C)C(OC2OC(C)C(O)C(N(C)C)C2O)C(CC=O)CC(C)C(=O)C=CC(C)=CC1COC(=O)Cc1ccc(Cl)cc1 (stereo not drawn) [Compound 32, 23-O-(p-Chlorophenylacetyl)-OMT]
minimal inhibitory concentration (MIC) [1]: 0.125
minimal inhibitory concentration (MIC) [2]: 0.25
minimal inhibitory concentration (MIC) [3]: 0.125
minimal inhibitory concentration (MIC) [4]: 0.25
minimal inhibitory concentration (MIC) [5]: 0.125
minimal inhibitory concentration (MIC) [6]: 0.25
minimal inhibitory concentration (MIC) [7]: 0.125
minimal inhibitory concentration (MIC) [8]: 0.125
minimal inhibitory concentration (MIC) [9]: 0.03
minimal inhibitory concentration (MIC) [10]: 0.06
minimal inhibitory concentration (MIC) (Mycoplasma gallisepticum): < 0.05
minimal inhibitory concentration (MIC) (Mycoplasma hyorhinis): 3.12
minimal inhibitory concentration (MIC) (Mycoplasma synoviae): < 0.05
minimal inhibitory concentration (MIC) [11]: 1.56
minimal inhibitory concentration (MIC) [12]: 3.12
minimal inhibitory concentration (MIC) [13]: 3.12
minimal inhibitory concentration (MIC) [14]: 1.56
minimal inhibitory concentration (MIC) [15]: 0.78
minimal inhibitory concentration (MIC) [16]: 1.56
minimal inhibitory concentration (MIC) [17]: 0.78
minimal inhibitory concentration (MIC) [18]: 0.39
minimal inhibitory concentration (MIC) (Staphylococcus aureus): 0.097
minimal inhibitory concentration (MIC) (Streptococcus sp. 80): 0.097
mortality at 30 mg/kg (Pasteurella multocida): 20%

CCC1OC(=O)CC(O)C(C)C(OC2OC(C)C(OC(C)=O)C(N(C)C)C2OC(C)=O)C(CC=O)CC(C)C(=O)C=CC(C)=CC1COC(=O)Cc1cccnc1 (stereo not drawn) [Compound 43, 2',4'-Di-O-acetyl-23O-(3-pyridylacetyl)-OMT]
minimal inhibitory concentration (MIC) [1]: 0.25
minimal inhibitory concentration (MIC) [2]: 0.5
minimal inhibitory concentration (MIC) [3]: 0.25
minimal inhibitory concentration (MIC) [4]: 0.5
minimal inhibitory concentration (MIC) [5]: 0.25
minimal inhibitory concentration (MIC) [6]: 0.5
minimal inhibitory concentration (MIC) [7]: 0.25
minimal inhibitory concentration (MIC) [8]: 0.25
minimal inhibitory concentration (MIC) [9]: 0.06
minimal inhibitory concentration (MIC) [10]: 0.06
minimal inhibitory concentration (MIC) (Mycoplasma gallisepticum): 0.78
minimal inhibitory concentration (MIC) (Mycoplasma hyorhinis): 0.78
minimal inhibitory concentration (MIC) (Mycoplasma synoviae): < 0.05
minimal inhibitory concentration (MIC) [11]: 6.25
minimal inhibitory concentration (MIC) [12]: 6.25
minimal inhibitory concentration (MIC) [13]: 3.12
minimal inhibitory concentration (MIC) [14]: 3.12
minimal inhibitory concentration (MIC) [15]: 3.12
minimal inhibitory concentration (MIC) [16]: 3.12
minimal inhibitory concentration (MIC) [17]: 3.12
minimal inhibitory concentration (MIC) [18]: 1.56
minimal inhibitory concentration (MIC) (Staphylococcus aureus): 0.39
minimal inhibitory concentration (MIC) (Streptococcus sp. 80): 0.195
mortality at 30 mg/kg (Pasteurella multocida): 80%

CCC1OC(=O)CC(O)C(C)C(OC2OC(C)C(OC(C)=O)C(N(C)C)C2OC(C)=O)C(CC=O)CC(C)C(=O)C=CC(C)=CC1COC(=O)[C@H](O)c1ccccc1 (stereo partly drawn) [Compound 41, 2',4'-Di-O-acetyl-23-O-(D-mandeloyl)-OMT]
minimal inhibitory concentration (MIC) [1]: 0.25
minimal inhibitory concentration (MIC) [2]: 0.25
minimal inhibitory concentration (MIC) [3]: 0.125
minimal inhibitory concentration (MIC) [4]: 0.5
minimal inhibitory concentration (MIC) [5]: 0.25
minimal inhibitory concentration (MIC) [6]: 0.25
minimal inhibitory concentration (MIC) [7]: 0.25
minimal inhibitory concentration (MIC) [8]: 0.125
minimal inhibitory concentration (MIC) [9]: 0.03
minimal inhibitory concentration (MIC) [10]: 0.06
minimal inhibitory concentration (MIC) (Mycoplasma gallisepticum): 0.195
minimal inhibitory concentration (MIC) (Mycoplasma hyorhinis): 12.5
minimal inhibitory concentration (MIC) (Mycoplasma synoviae): 0.39
minimal inhibitory concentration (MIC) [11]: 6.25
minimal inhibitory concentration (MIC) [12]: 6.25
minimal inhibitory concentration (MIC) [13]: 6.25
minimal inhibitory concentration (MIC) [14]: 3.12
minimal inhibitory concentration (MIC) [15]: 3.12
minimal inhibitory concentration (MIC) [16]: 3.12
minimal inhibitory concentration (MIC) [17]: 3.12
minimal inhibitory concentration (MIC) [18]: 3.12
minimal inhibitory concentration (MIC) (Staphylococcus aureus): 0.78
minimal inhibitory concentration (MIC) (Streptococcus sp. 80): 0.195
mortality at 30 mg/kg (Pasteurella multocida): 100%

CCC1OC(=O)CC(O)C(C)C(OC2OC(C)C(OC(C)=O)C(N(C)C)C2OC(C)=O)C(CC=O)CC(C)C(=O)C=CC(C)=CC1COS(=O)(=O)c1ccc(NC(C)=O)cc1 (stereo not drawn) [Compound 47, 23-O-(p-Acetamidobenzenesulfonyl)-2',4'-di-O-acetyl-OMT]
minimal inhibitory concentration (MIC) [1]: 1
minimal inhibitory concentration (MIC) [2]: 2
minimal inhibitory concentration (MIC) [3]: 1
minimal inhibitory concentration (MIC) [4]: 2
minimal inhibitory concentration (MIC) [5]: 1
minimal inhibitory concentration (MIC) [6]: 2
minimal inhibitory concentration (MIC) [7]: 1
minimal inhibitory concentration (MIC) [8]: 1
minimal inhibitory concentration (MIC) [9]: 0.125
minimal inhibitory concentration (MIC) [10]: 0.125
minimal inhibitory concentration (MIC) (Mycoplasma gallisepticum): 0.195
minimal inhibitory concentration (MIC) (Mycoplasma hyorhinis): 12.5
minimal inhibitory concentration (MIC) (Mycoplasma synoviae): 1.56
minimal inhibitory concentration (MIC) [11]: 12.5
minimal inhibitory concentration (MIC) [12]: 12.5
minimal inhibitory concentration (MIC) [13]: 12.5
minimal inhibitory concentration (MIC) [14]: 6.25
minimal inhibitory concentration (MIC) [15]: 12.5
minimal inhibitory concentration (MIC) [16]: 12.5
minimal inhibitory concentration (MIC) [17]: 3.12
minimal inhibitory concentration (MIC) [18]: 3.12
minimal inhibitory concentration (MIC) (Staphylococcus aureus): 0.78
minimal inhibitory concentration (MIC) (Streptococcus sp. 80): < 0.05
mortality at 30 mg/kg (Pasteurella multocida): 90%

CCC1OC(=O)CC(O)C(C)C(OC2OC(C)C(O)C(N(C)C)C2OC(C)=O)C(CC=O)CC(C)C(=O)C=CC(C)=CC1COC(=O)Cc1ccc(Cl)cc1 (stereo not drawn) [Compound 31, 2'-O-Acetyl-23-O-(p-chlorophenylacetyl)-OMT]
minimal inhibitory concentration (MIC) [1]: 0.125
minimal inhibitory concentration (MIC) [2]: 0.125
minimal inhibitory concentration (MIC) [3]: 0.125
minimal inhibitory concentration (MIC) [4]: 0.25
minimal inhibitory concentration (MIC) [5]: 0.125
minimal inhibitory concentration (MIC) [6]: 0.25
minimal inhibitory concentration (MIC) [7]: 0.125
minimal inhibitory concentration (MIC) [8]: 0.125
minimal inhibitory concentration (MIC) [9]: 0.03
minimal inhibitory concentration (MIC) [10]: 0.125
minimal inhibitory concentration (MIC) (Mycoplasma gallisepticum): < 0.05
minimal inhibitory concentration (MIC) (Mycoplasma hyorhinis): 3.12
minimal inhibitory concentration (MIC) (Mycoplasma synoviae): < 0.05
minimal inhibitory concentration (MIC) [11]: 1.56
minimal inhibitory concentration (MIC) [12]: 1.56
minimal inhibitory concentration (MIC) [13]: 3.12
minimal inhibitory concentration (MIC) [14]: 1.56
minimal inhibitory concentration (MIC) [15]: 1.56
minimal inhibitory concentration (MIC) [16]: 1.56
minimal inhibitory concentration (MIC) [17]: 0.78
minimal inhibitory concentration (MIC) [18]: 0.78
minimal inhibitory concentration (MIC) (Staphylococcus aureus): < 0.05
minimal inhibitory concentration (MIC) (Streptococcus sp. 80): < 0.05
mortality at 30 mg/kg (Pasteurella multocida): 100%
